Read-outs that look alike come from different tables or passages of the source. Positions of bridges follow the written chain, without caps; N, C: chain ends. Non-standard residues stand in square brackets, D forms with d. Residues, ends and D or L forms follow the SMILES beside them. Phe(3,4-F2) = N[C@@H](Cc1ccc(F)c(F)c1)C(=O)O; Phe(4-NH2) = Nc1ccc(C[C@H](N)C(=O)O)cc1; Phe(2-Cl) = N[C@@H](Cc1ccccc1Cl)C(=O)O; Hyp = O=C(O)[C@@H]1C[C@@H](O)CN1; NMeF = CN[C@@H](Cc1ccccc1)C(=O)O; NMeNle = CCCC[C@H](NC)C(=O)O; Pip = O=C(O)[C@@H]1CCCCN1; NMeA = CN[C@@H](C)C(=O)O; Dap = NC[C@H](N)C(=O)O; Sar = CNCC(=O)O
Experiments:
Human PD-L1/PD-1 = target: T1, Human PD-L1/PD-1 (Homo sapiens, UniProt Q9NZQ7); assay: HTRF PD-1-Ig/PD-L1-His binding assay (human PD-L1)
T1 construct: made in house; host or cells: HEK293T
Outline: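 Steps: truncated PD-1-Ig and PD-L1-His fusions are incubated in dPBS containing 0.1% (w/v) BSA and 0.05% (v/v) Tween-20. Detection antibodies are then added (Eu cryptate anti-Ig at 1 nM final, APC anti-His at 20 nM final), and time-resolved FRET is measured.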

[1] = target: T2, LK35.2-hPD-L1 cells / PE-labeled PD-1-Ig (Homo sapiens, UniProt Q9NZQ7); assay: LK35.2-hPD-L1 cell binding high-content screening assay; assay type: cell-based
T2 construct: expressed in transfected cells; host or cells: LK35.2 mouse B cell line
Method: LK35.2-hPD-L1 Cell Binding High-Content Screening Assay. Phycoerythrin (PE) was covalently linked to the Ig epitope tag of human PD-1-Ig and fluorescently-labeled PD-1-Ig was used for binding studies with a mouse B cell line (LK35.2) stably over-expressing human PD-L1 (LK35.2-hPD-L1). Briefly, 3×10^3 LK35.2-hPD-L1 cells were seeded into 384 well plates in 20 ul of RPMI supplemented with 10% fetal calf serum and cultured overnight. 125 nl of compound was added to cells, followed by 5 ul of PE-labeled PD-1-Ig (1 nM final), diluted in RPMI supplemented with 10% fetal calf serum, followed by incubation at 37° C. for 1 h. […] Cells were washed 3× in 100 ul of dPBS followed by final addition of 15 ul of dPBS. Data was collected and processed using a Cell Insight NXT High Content Imager and associated software.

[2] = cluster symbol, read-out: HTRF IC50 cluster
[3] = cell binding assay, cell line not given, cluster symbol, read-out: CBA IC50 cluster
[4] = cluster symbol, cell line of CBA not given (LK35.2-hPD-L1 or 293T-hPD-L1), read-out: CBA IC50 cluster

T1 sequence (Q9NZQ7 with tags, fused parts or gaps): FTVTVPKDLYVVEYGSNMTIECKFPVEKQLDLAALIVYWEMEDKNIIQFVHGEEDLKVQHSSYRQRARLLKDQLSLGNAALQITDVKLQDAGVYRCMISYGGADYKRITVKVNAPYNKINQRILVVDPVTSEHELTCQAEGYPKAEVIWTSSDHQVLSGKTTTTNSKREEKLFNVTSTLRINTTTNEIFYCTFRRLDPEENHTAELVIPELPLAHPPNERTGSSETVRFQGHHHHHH
T2 sequence (Q9NZQ7 19-290): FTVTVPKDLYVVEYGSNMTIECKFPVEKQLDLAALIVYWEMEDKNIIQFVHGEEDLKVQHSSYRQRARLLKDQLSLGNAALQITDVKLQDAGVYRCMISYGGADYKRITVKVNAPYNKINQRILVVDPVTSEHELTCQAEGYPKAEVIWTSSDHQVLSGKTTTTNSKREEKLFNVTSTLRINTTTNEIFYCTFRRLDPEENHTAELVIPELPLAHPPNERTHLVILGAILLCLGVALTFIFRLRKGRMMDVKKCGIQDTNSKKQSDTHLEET

Compound	IC50 (Human PD-L1/PD-1; [2]) [nM]	IC50 [1, 3] [nM]	IC50 [1, 4] [nM]	IC50 (Human PD-L1/PD-1; read-out: HTRF IC50 value) [nM]	IC50 ([1]; cell line of CBA not given (LK35.2-hPD-L1 or 293T-hPD-L1), read-out: CBA IC50 value) [nM]
CCCC[C@H]1C(=O)N(C)[C@@H](CCCC)C(=O)N[C@@H](CO)C(=O)N[C@H](C(=O)NCC(N)=O)CSCC(=O)N[C@@H](Cc2ccc(O)cc2)C(=O)N(C)[C@@H](C)C(=O)N[C@@H](CC(N)=O)C(=O)N2CCC[C@H]2C(=O)N[C@@H](CO)C(=O)N[C@@H](CC(C)C)C(=O)N2C[C@H](O)C[C@H]2C(=O)N[C@@H](Cc2c[nH]c3ccccc23)C(=O)N[C@@H](CO)C(=O)N[C@@H](Cc2c[nH]c3ccccc23)C(=O)N1C [Example 5118] ({CH2CO}-Y[NMeA]NPSL[Hyp]WSW[NMeNle][NMeNle]SCG-NH2; thioether N-14)	0.385 to 6.74	0.158 to 4.71	–	–	–
CCCC[C@H]1C(=O)N(C)[C@@H](CCCC)C(=O)N[C@@H](CCCNC(=N)N)C(=O)N[C@H](C(=O)NCC(N)=O)CSCC(=O)N[C@@H](Cc2ccc(N)cc2)C(=O)N(C)[C@@H](C)C(=O)N[C@@H](CC(N)=O)C(=O)N2CCC[C@H]2C(=O)N[C@@H](Cc2cnc[nH]2)C(=O)N[C@@H](CC(C)C)C(=O)N2C[C@H](O)C[C@H]2C(=O)N[C@@H](Cc2c[nH]c3ccccc23)C(=O)N[C@@H](CO)C(=O)N[C@@H](Cc2c[nH]c3ccccc23)C(=O)N1C [Example 7059] ({CH2CO}-[Phe(4-NH2)][NMeA]NPHL[Hyp]WSW[NMeNle][NMeNle]RCG-NH2; thioether N-14)	0.385 to 6.74	4.78 to 72.9	–	–	–
CCCC[C@H]1C(=O)N(C)CC(=O)N[C@@H](CC(=O)O)C(=O)N[C@@H](C(C)C)C(=O)N(C)[C@@H](Cc2ccccc2)C(=O)N[C@@H](Cc2ccc(O)cc2)C(=O)N(C)CC(=O)N[C@@H](Cc2c[nH]c3ccccc23)C(=O)N[C@@H](Cc2ccc(O)cc2)C(=O)N[C@@H](CC(C)C)C(=O)N[C@H](C(=O)NCC(N)=O)CSCC(=O)N[C@@H](Cc2ccc(O)cc2)C(=O)N(C)[C@@H](Cc2ccccc2)C(=O)N1C [Example 3065] (HELM PEPTIDE1{[O=C(C[*:3])[*:2]].Y.[meF].[CCCC[C@@H](C(=O)[*:2])N(C)[*:1]].[Sar].D.V.[meF].Y.[Sar].W.Y.L.C.G.[am]}$PEPTIDE1,PEPTIDE1,1:R3-14:R3$$$V2.0)	> 30.5	–	> 74.3	–	–
CCCC[C@H]1C(=O)N(C)[C@@H](CCCC)C(=O)N[C@@H](CCCNC(=N)N)C(=O)N[C@H](C(=O)NCC(N)=O)CSCC(=O)N[C@@H](Cc2ccc(F)c(F)c2)C(=O)N(C)[C@@H](C)C(=O)N[C@@H](CC(N)=O)C(=O)N2CCC[C@H]2C(=O)N[C@@H](Cc2cnc[nH]2)C(=O)N[C@@H](CC(C)C)C(=O)N(C)CC(=O)N[C@@H](Cc2c[nH]c3ccccc23)C(=O)N[C@@H](CO)C(=O)N[C@@H](Cc2c[nH]c3ccccc23)C(=O)N1C [Example 1104] ({CH2CO}-[Phe(3,4-F2)][NMeA]NPHL[Sar]WSW[NMeNle][NMeNle]RCG-NH2; thioether N-14)	6.76 to 30.3	–	4.78 to 72.9	–	–
CCCC[C@H]1C(=O)N(C)CC(=O)N[C@@H](CC(=O)O)C(=O)N[C@@H](C(C)C)C(=O)N[C@@H](Cc2ccccc2Cl)C(=O)N[C@@H](Cc2ccc(O)cc2)C(=O)N(C)CC(=O)N[C@@H](Cc2c[nH]c3ccccc23)C(=O)N[C@@H](Cc2ccc(O)cc2)C(=O)N[C@@H](CC(C)C)C(=O)N[C@H](C(=O)NCC(N)=O)CSCC(=O)N[C@@H](Cc2ccccc2)C(=O)N(C)[C@@H](Cc2ccccc2)C(=O)N1C [Example 3132] ({CH2CO}-F[NMeF][NMeNle][Sar]DV[Phe(2-Cl)]Y[Sar]WYLCG-NH2; thioether N-13)	–	–	–	2230	3780
CCCC[C@H]1C(=O)N(C)[C@@H](CCCC)C(=O)N[C@@H](CCCNC(=N)N)C(=O)N[C@H](C(=O)NCC(N)=O)CSCC(=O)N[C@@H](Cc2ccc(O)cc2)C(=O)N2CCCC[C@H]2C(=O)N[C@@H](CC(=O)O)C(=O)N2CCC[C@H]2C(=O)N[C@@H](CN)C(=O)N[C@@H](CC(C)C)C(=O)N2C[C@H](O)C[C@H]2C(=O)N[C@@H](Cc2c[nH]c3ccccc23)C(=O)N[C@@H](CO)C(=O)N[C@@H](Cc2c[nH]c3ccccc23)C(=O)N1C [Example 1233] ({CH2CO}-Y[Pip]DP[Dap]L[Hyp]WSW[NMeNle][NMeNle]RCG-NH2; thioether N-14)	6.76 to 30.3	–	0.158 to 4.71	–	–
